These results are taken from article PMC4801207, “Characterisation of Signalling by the Endogenous GPER1 (GPR30) Receptor in an Embryonic Mouse Hippocampal Cell Line (mHippoE-18)” (PLoS ONE, 2016).

SMILES strings stand for the structures.

This assay deals with T1, GPER1 (GPR30) (Mus musculus, UniProt Q8BMP4).
T1 construct: full-length endogenous receptor, native in mHippoE-18 immortalized embryonic mouse hippocampal cell line (CELLutions Biosystems); cells also express moderate ERalpha and ERbeta
T1 sequence (Q8BMP4 1-375): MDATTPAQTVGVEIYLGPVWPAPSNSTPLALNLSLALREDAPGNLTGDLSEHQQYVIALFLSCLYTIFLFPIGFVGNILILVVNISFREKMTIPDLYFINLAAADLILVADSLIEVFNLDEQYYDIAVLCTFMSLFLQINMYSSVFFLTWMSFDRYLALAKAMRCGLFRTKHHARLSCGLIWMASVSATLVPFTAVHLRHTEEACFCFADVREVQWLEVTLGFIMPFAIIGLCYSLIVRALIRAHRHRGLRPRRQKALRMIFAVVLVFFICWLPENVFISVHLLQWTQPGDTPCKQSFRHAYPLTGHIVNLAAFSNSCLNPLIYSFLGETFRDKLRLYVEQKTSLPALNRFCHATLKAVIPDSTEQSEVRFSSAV
Description: cAMP accumulation, radiometric PKA binding assay, mHippoE-18 cells. The class given is cell-based. As to conditions: agonist; potentiation of 10 μM forskolin-stimulated cAMP, 100 μM IBMX, 20 min; endogenous receptor, no antagonist.
Turning to `CC(=O)c1ccc2c(c1)[C@H]1C=CC[C@H]1[C@@H](c1cc3c(cc1Br)OCO3)N2` (racemic) [G1], the EC50 (usually the concentration at which the effect is half-maximal) worked out at 0.52 nM.

In the case of `C[C@]12CC[C@@H]3c4ccc(O)cc4CC[C@H]3[C@@H]1CC[C@@H]2O` [17β-Estradiol], the EC50 came out at 1.1 nM.

With `C[C@]12CC[C@@H]3c4ccc(O)cc4C[C@@H](CCCCCCCCC[S+]([O-])CCCC(F)(F)C(F)(F)F)[C@H]3[C@@H]1CC[C@@H]2O` (stereo partly drawn) [ICI 182,780, 7α, 17β-[9-[(4,4,5,5,5-Pentafluoropentyl)sulfinyl]nonyl]estra-1,3,5(10)-triene-3,17-diol], the EC50 worked out at 3.6 nM.
